Measured values from ChEMBL document CHEMBL6127035, “Novel pyridazinone derivatives bind to KSRP: Synthesis, anti-tumor biological evaluations and modelling insights” (Eur J Med Chem, 2024).
The source made the active and inactive calls. No cut-off for these calls is given here.

Columns and labels:
4T1 = assay: Antiproliferative activity against mouse 4T1 cells assessed as reduction in cell viability incubated for 2 days by MTT assay; type: functional, cell-based; conditions: 4T1, 48 h
MCF7 [1] = assay: Antiproliferative activity against human MCF7 cells assessed as reduction in cell viability incubated for 2 days by MTT assay; type: functional, cell-based; conditions: MCF7, 48 h
MDA-MB-231 [2] = assay: Antiproliferative activity against human MDA-MB-231 cells assessed as reduction in cell viability incubated for 2 days by MTT assay; type: functional, cell-based; conditions: MDA-MB-231, 48 h
NCI-H460 = assay: Antiproliferative activity against human NCI-H460 cells assessed as reduction in cell viability incubated for 2 days by MTT assay; type: functional, cell-based; conditions: NCI-H460, 48 h
KB = assay: Antiproliferative activity against human KB cells assessed as reduction in cell viability incubated for 2 days by MTT assay; type: functional, cell-based; conditions: 48 h
A549 = assay: Antiproliferative activity against human A549 cells assessed as reduction in cell viability incubated for 2 days by MTT assay; type: functional, cell-based; conditions: A549, 48 h
HCT-116 = assay: Antiproliferative activity against human HCT-116 cells assessed as reduction in cell viability incubated for 2 days by MTT assay; type: functional, cell-based; conditions: HCT-116, 48 h
U-87 MG = assay: Antiproliferative activity against human U-87 MG cells assessed as reduction in cell viability incubated for 2 days by MTT assay; type: functional, cell-based, U-87MG ATCC; conditions: 48 h
MIA PaCa-2 = assay: Antiproliferative activity against human MIA PaCa-2 cells assessed as reduction in cell viability incubated for 2 days by MTT assay; type: functional, cell-based; conditions: MIA PaCa-2, 48 h
[3] = Cytotoxicity against human L02 cells assessed as reduction in cell viability incubated for 2 days by MTT assay; type: toxicity, cell-based
MCF7 [4] = assay: Inhibition of colony formation in human MCF7 cells assessed as reduction in colony count incubated for 2 weeks by crystal violet staining based analysis; type: functional, cell-based; conditions: dose 1.25-2.5 µM
MDA-MB-231 [5] = assay: Inhibition of colony formation in human MDA-MB-231 cells assessed as reduction in colony count incubated for 2 weeks by crystal violet staining based analysis; type: functional, cell-based
MCF7 [6] = assay: Antiproliferation against human MCF7 cells assessed as effect on cell proliferation at 0.625 uM incubated for 2 days by MTT assay; type: functional, cell-based; conditions: time 2.0 day
MCF7 [7] = assay: Inhibition of cell migration in human MCF7 cells assessed as reduction in wound healing index at 0.625 uM measured after 72 hrs by scratch assay; type: functional, cell-based
MDA-MB-231 [8] = assay: Inhibition of cell migration in human MDA-MB-231 cells assessed as reduction in wound healing index measured after 72 hrs by scratch assay; type: functional, cell-based
MCF7 [9] = assay: Induction of apoptosis in human MCF7 cells assessed as viable cells at 0.62 uM incubated for 48 hrs by Annexin V-FITC/PI staining based flow cytometric analysis (reference value: 89.3 %); type: functional; conditions: read-out: Activity
MCF7 [10] = assay: Induction of apoptosis in human MCF7 cells assessed as early apoptotic cells at 0.62 uM incubated for 48 hrs by Annexin V-FITC/PI staining based flow cytometric analysis (reference value: 5.12 %); type: functional
MCF7 [11] = assay: Induction of apoptosis in human MCF7 cells assessed as late apoptotic cells at 0.62 uM incubated for 48 hrs by Annexin V-FITC/PI staining based flow cytometric analysis (reference value: 4.32 %); type: functional
MCF7 [12] = assay: Induction of apoptosis in human MCF7 cells assessed as necrotic cells at 0.62 uM incubated for 48 hrs by Annexin V-FITC/PI staining based flow cytometric analysis (reference value: 1.22 %); type: functional
MCF7 [13] = assay: Induction of apoptosis in human MCF7 cells assessed as viable cells at 1.25 uM incubated for 48 hrs by Annexin V-FITC/PI staining based flow cytometric analysis (reference value: 89.3 %); type: functional; conditions: read-out: Activity
MCF7 [14] = assay: Induction of apoptosis in human MCF7 cells assessed as early apoptotic cells at 1.25 uM incubated for 48 hrs by Annexin V-FITC/PI staining based flow cytometric analysis (reference value: 5.12 %); type: functional
MCF7 [15] = assay: Induction of apoptosis in human MCF7 cells assessed as late apoptotic cells at 1.25 uM incubated for 48 hrs by Annexin V-FITC/PI staining based flow cytometric analysis (reference value: 4.32 %); type: functional
MCF7 [16] = assay: Induction of apoptosis in human MCF7 cells assessed as necrotic cells at 1.25 uM incubated for 48 hrs by Annexin V-FITC/PI staining based flow cytometric analysis (reference value: 1.22 %); type: functional
MCF7 [17] = assay: Induction of apoptosis in human MCF7 cells assessed as viable cells at 2.5 uM incubated for 48 hrs by Annexin V-FITC/PI staining based flow cytometric analysis (reference value: 89.3 %); type: functional; conditions: read-out: Activity
MCF7 [18] = assay: Induction of apoptosis in human MCF7 cells assessed as early apoptotic cells at 2.5 uM incubated for 48 hrs by Annexin V-FITC/PI staining based flow cytometric analysis (reference value: 5.12 %); type: functional
MCF7 [19] = assay: Induction of apoptosis in human MCF7 cells assessed as late apoptotic cells at 2.5 uM incubated for 48 hrs by Annexin V-FITC/PI staining based flow cytometric analysis (reference value: 4.32 %); type: functional
MCF7 [20] = assay: Induction of apoptosis in human MCF7 cells assessed as necrotic cells at 2.5 uM incubated for 48 hrs by Annexin V-FITC/PI staining based flow cytometric analysis (reference value: 1.22 %); type: functional
Mitochondrial membrane = assay: Induction of mitochondrial membrane potential loss in human MCF7 cells assessed as increase in green fluorescence at 10 uM incubated for 24 hrs by JC-1 staining based automated microscopic immunofluorescence analysis; type: cell membranes
MCF7 [21] = assay: Induction of ROS accumulation in human MCF7 cells assessed as increase in green fluorescence at 5 uM incubated for 24 hrs by DCFH-DA staining based automated microscopic immunofluorescence analysis; type: functional, cell-based
MCF7 [22] = assay: Induction of morphological changes in human MCF7 cells assessed as cell membrane blebbing at 10 uM measured after 6 hrs by bright field microscopic; type: functional, cell-based
MCF7 [23] = assay: Induction of DNA double-strand breaks in human MCF7 cells assessed as increase in gamma-H2AX foci formation at 10 uM incubated for 24 hrs by […] fluorescence microscopic analysis; type: functional, cell-based
MCF7 [24] = assay: Induction of DNA double-strand breaks in human MCF7 cells assessed as enlarged nucleus at 10 uM incubated for 24 hrs by Hoechst 33342 staining based fluorescence microscopic analysis; type: functional, cell-based
MCF7 [25] = assay: Induction of DNA double-strand breaks in human MCF7 cells assessed as appearance of nuclear fragments at 10 uM incubated for 24 hrs by Hoechst 33342 staining based fluorescence microscopic analysis; type: functional, cell-based
MCF7 [26] = assay: Induction of DNA double-strand breaks in human MCF7 cells assessed as increase in gamma-H2AX expression incubated for 24 hrs by Western blotting; type: functional, cell-based
[27] = Acute toxicity in BALB/c nu/nu mouse assessed as mortality rate at 30 mg/kg, ip administered for 7 days relative to control; type: organism-based; conditions: in vivo, time 7 day

For `CN(C)CCN(C)S(=O)(=O)c1ccc(-n2ncc(Cl)c(Cl)c2=O)cc1`, which IC50 (4T1) is on record?
Its IC50 is 1.15 µM.

What about the IC50 (MCF7 [1]) of the same compound?
The IC50 was 3.79 µM.

What about the IC50 (MDA-MB-231 [2]) of the same compound?
The IC50 was 9.16 µM.

What about the IC50 (NCI-H460) of the same compound?
Its IC50 is 0.53 µM.

What about the IC50 (KB) of the same compound?
The IC50 was 0.22 µM.

And the IC50 (A549)?
The IC50 was 1 µM.

What about the IC50 (HCT-116) of the same compound?
Its IC50 is 0.67 µM.

And the IC50 (U-87 MG)?
Its IC50 is 0.36 µM.

What about the IC50 (MIA PaCa-2) of the same compound?
Its IC50 is 0.39 µM.

And the IC50 at 2 days [3]?
The IC50 at 2 days was 4.97 µM.

And the inhibition (MCF7 [4])?
Its inhibition is “Dose-Dependent Effect”.

And the inhibition (MDA-MB-231 [5])?
The inhibition was “Active”.

And the Activity (MCF7 [6])?
The Activity was “inactive”.

What about the inhibition (MCF7 [7]) of the same compound?
Its inhibition is “Active”.

What about the inhibition (MDA-MB-231 [8]) of the same compound?
The inhibition was “Active”.

And the viability at 0.62 µM (MCF7 [9])?
The viability at 0.62 µM was 85.5%.

And the Activity (MCF7 [10])?
The Activity was 8.46%.

And the Activity (MCF7 [11])?
Its Activity is 4.7%.

And the Activity (MCF7 [12])?
The Activity was 1.3%.

What about the viability at 1.25 µM (MCF7 [13]) of the same compound?
Its viability at 1.25 µM is 83.5%.

And the Activity (MCF7 [14])?
Its Activity is 9.53%.

What about the Activity (MCF7 [15]) of the same compound?
The Activity was 5.47%.

What about the Activity (MCF7 [16]) of the same compound?
Its Activity is 1.48%.

And the viability at 2.5 µM (MCF7 [17])?
The viability at 2.5 µM was 75.3%.

What about the Activity (MCF7 [18]) of the same compound?
The Activity was 17%.

What about the Activity (MCF7 [19]) of the same compound?
The Activity was 6.94%.

And the Activity (MCF7 [20])?
The Activity was 0.71%.

And the Activity (Mitochondrial membrane)?
Its Activity is “Active”.

And the Activity (MCF7 [21])?
Its Activity is “Active”.

And the Activity (MCF7 [22])?
Its Activity is “Active”.

What about the Activity (MCF7 [23]) of the same compound?
Its Activity is “Active”.

What about the Activity (MCF7 [24]) of the same compound?
The Activity was “Active”.

And the Activity (MCF7 [25])?
Its Activity is “Active”.

What about the Activity (MCF7 [26]) of the same compound?
The Activity was “Dose-Dependent Effect”.

And the mortality at 168 h [27]?
Its mortality at 168 h is 100%.
